Measured values as given in patent US20030050274A1, “Composition containing S-adenosylmethionine for treating or preventing insulin resistance syndrome” (priority 2001, published 2003).

How the values were obtained:
Assay type in all cases: in vivo, rat
[1] = system: OLETF (Otsuka Long Evans Tokushima Fatty) rats; test: Weight change of OLETF rats administered S-adenosylmethionine; parameters: Body Weight: dose or concentration left out as unconfirmed
Method: (§1) 14 six-week-old OLETF (Otsuka Long Evans Tokushima Fatty) rats (Otsuka Research Lab., Tokushima, bred for use as a non-insulin-dependent diabetes mellitus model) were evenly divided into two injection groups. The rats of two groups were administered into the abdominal cavity either with S-adenosylmethionine (SAMe(+) group) or with a vehicle containing L-lysine (SAMe(−) group) at a daily dose of 15 mg/kg body weight for a duration of up to 19 weeks. 7 six-week-old LETO (Long Evans Tokushima Otsuka) rats (Otsuka Research Lab., Tokushima, normal rats) were used as a normal control group (Control group). The rats of each group were examined for their weight changes, and checked by way of conducting glucose load tests and euglycemic hyperinsulinemic clamp tests to measure the effect of S-adenosylmethionine on the insulin secretion and insulin sensitivity.
(§2) Test data were analyzed to represent each test result in the form of mean±standard error mean. Differences in weight changes among the groups were analyzed by ANOVA with Least Significance Difference using SPSS/PC 10.0, and the differences in glucose load and clamp test results, by the Kruskall-Wallis test and checked using the Mann-Whitney probation method. The significance level was set at a p value of 0.05 or below.
(1-1) Weight Change At 0, 1, 2, 4, 8, 13, 16 and 19 weeks after the administration had begun, the weight changes of the rats of the three groups were recorded.

[2] = system: OLETF (Otsuka Long Evans Tokushima Fatty) rats; test: Glucose load test
Method: as §1, §2
On the 19th week after the administration had begun, the rats were starved for 6 hours and a 35% glucose solution (0.5 g glucose/kg body weight) was bolus-infused into each rat through the tail artery. At 0, 2, 6, 8, 10, 15, 20 and 30 minites after the infusion, a 200 μl blood sample was taken from the tail artery of each rat, centrifuged and the plasma supernatant was separated. The blood glucose level was determined by employing YSI 2300.
In addition, the glucose loss rate ( % /min) was calculated from the inclination of log-converted values of glucose concentrations measured during 2 to 15 minutes after the infusion. The glucose loss rates of the SAM(+) and SAM(−) groups were similar at 3.69±0.29 and 3.23±0.32%/min, respectively, while that of the Control group was much higher at 5.13±0.29%/min.

[3] = system: OLETF (Otsuka Long Evans Tokushima Fatty) rats; test: Euglycemic hyperinsulinemic clamp test
Method: as §1, with “The rats of each group were examined for their weight changes, and checked by way of conducting glucose load tests and euglycemic hyperinsulinemic clamp tests to measure the effect of S-adenosylmethionine on the insulin secretion and insulin sensitivity.” left out
as §2, with “The significance level was set at a p value of 0.05 or below.” left out
Based on the fact that the amount of glucose infused to maintain the steady basal level is equal to the amount of glucose consumed in the body, insulin resistance of each group was determined from the mean glucose infusion rate (mg/kg/min) during the clamp test period. […]

SD-based rats = test: Toxicity of orally administered S-adenosylmethionine
Method: 8 six-week-old, specific pathogen-free SD-based rats were evenly divided into four groups, which were orally administered with S-adenosylmethionine suspended in a 0.5% methylcellulose solution at a dose of 50, 100, 200 and 500 mg SAMe/kg body weight, respectively. […] Every 12 hours thereafter, the weight changes of the rats were recorded to examine the effect of S-adenosylmethionine. Further, on the 10th day, the rats were sacrificed and the internal organs were visually examined.

[4] = measurement time period 0-30 min after the infusion

C[S+](CC[C@H](N)C(=O)[O-])C[C@H]1O[C@@H](n2cnc3c(N)ncnc32)[C@H](O)[C@@H]1O (stereo partly drawn) [S-adenosylmethionine]
ratio of weight gain as compared with the SAM(−) group ([1]; OLETF rats, 15 mg/kg/day into abdominal cavity, up to 19 weeks): significantly lower
Body Weight ([1]; week 0): 220 g
Body Weight ([1]; week 1): 299 g
Body Weight ([1]; week 2): 343 g
Body Weight ([1]; week 4): 403 g
Body Weight ([1]; week 8): 464 g
Body Weight ([1]; week 13): 498 g
Body Weight ([1]; week 16): 528 g
Body Weight ([1]; week 19): 565 g
blood glucose levels measured at 6 and 8 minutes after the infusion as compared with the SAM(−) group ([2]; OLETF rats, 19th week of 15 mg/kg/day): significantly lower
Blood Glucose Level ([2]; OLETF rats, 19th week of 15 mg/kg/day, 0 min after 0.5 g/kg glucose infusion): 118 mg/dL
Blood Glucose Level ([2]; OLETF rats, 19th week of 15 mg/kg/day, 2 min after 0.5 g/kg glucose infusion): 368 mg/dL
Blood Glucose Level ([2]; OLETF rats, 19th week of 15 mg/kg/day, 6 min after 0.5 g/kg glucose infusion): 291 mg/dL
Blood Glucose Level ([2]; OLETF rats, 19th week of 15 mg/kg/day, 8 min after 0.5 g/kg glucose infusion): 265 mg/dL
Blood Glucose Level ([2]; OLETF rats, 19th week of 15 mg/kg/day, 10 min after 0.5 g/kg glucose infusion): 257 mg/dL
Blood Glucose Level ([2]; OLETF rats, 19th week of 15 mg/kg/day, 15 min after 0.5 g/kg glucose infusion): 224 mg/dL
Blood Glucose Level ([2]; OLETF rats, 19th week of 15 mg/kg/day, 20 min after 0.5 g/kg glucose infusion): 204 mg/dL
Blood Glucose Level ([2]; OLETF rats, 19th week of 15 mg/kg/day, 30 min after 0.5 g/kg glucose infusion): 172 mg/dL
glucose loss rate ([2]; from inclination of log-converted glucose concentrations, 2 to 15 minutes after the infusion): 3.69±0.29 %/min
area obtained by integrating the blood glucose level curve [2, 4]: 234±9.6 (mg/dl).min
area under blood glucose level curve, difference among SAM(+), SAM(−) and Control groups [2, 4]: no significant differences
mean glucose infusion rate ([3]; 19th week of 15 mg/kg/day, insulin 12 mU/kg/min, clamp period 60 to 120 min): 16.7 ± 1.70 mg/kg/min
insulin resistance ([3]; conclusion from clamp test): effectively lowers the insulin resistance
toxicity (SD-based rats; rat, oral, dose of 500 mg/kg, observed 10 days): no toxicity
autopsy: pathological abnormality of internal organs (SD-based rats; rats, oral 50-500 mg/kg, 10th day): did not develop any pathological abnormality
weight loss (SD-based rats; rats, oral 50-500 mg/kg, 10 day test period): no weight loss
survival at day 10 (SD-based rats; rats, oral single dose 50, 100, 200 and 500 mg/kg): All the rats were alive
